Data reported in US20240400555A1 (Initial Therapeutics, Inc., priority 2023, published 2024).

Tested on: MV-4-11 cells
Experiment: Cell Viability Assay in MV-4-11 Cells
Type: cell-based
Settings: Homo sapiens, MV4-11, 72 h, MV-4-11 cells, 72 h, Cell-Titer Glo; read-out: IC50
Summary of the method: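 MV-4-11 cells at 7,000/well in IMDM with 10% FBS, exposed to compound for 72 h. Viability by CellTiter-Glo luminescence, normalized to DMSO as 100%, fitted with a four-parameter curve.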

IC50 [nM]	Structure (SMILES)
383	COc1ccc(C)c2c(N(C(=O)c3ccc(-c4nnc(C)s4)nc3)[C@@H]3CCCNC3)nccc12 [Example 902, N-(5-methoxy-8-methyl-1-isoquinolyl)-6-(5-methyl-1,3,4-thiadiazol-2-yl)-N-[(3R)-3-piperidyl] pyridine-3-carboxamide]
160	Cc1cccc2ccnc(N(C(=O)c3ccc(Nc4nccc(N(C)CCO)n4)cc3F)[C@@H]3CCCNC3)c12 [Example 743, (R)-2-fluoro-4-((4-((2-hydroxyethyl)(methyl)amino)pyrimidin-2-yl)amino)-N-(8-methylisoquinolin-1-yl)-N-(piperidin-3-yl)benzamide]
150	CCc1nnc(-c2ccc(C(=O)N(c3nccc4cc(Cl)cc(C)c34)[C@@H]3CCCNC3)c(F)c2)o1 [Example 654, (R)—N-(6-chloro-8-methylisoquinolin-1-yl)-4-(5-ethyl-1,3,4-oxadiazol-2-yl)-2-fluoro-N-(piperidin-3-yl)benzamide]
53	Cc1cc(Cl)cc2ccnc(N(C(=O)c3ccc(-c4nnn(C)c4CO)cc3F)[C@@H]3CCCNC3)c12 [Example 618, (R)—N-(6-chloro-8-methylisoquinolin-1-yl)-2-fluoro-4-(5-(hydroxymethyl)-1-methyl-1H-1,2,3-triazol-4-yl)-N-(piperidin-3-yl)benzamide]
210	Cc1cccc2ccnc(N(C(=O)c3ccc(-c4nnn(C)c4C)cc3F)[C@@H]3CCCNC3)c12 [Example 830, (R)-4-(1,5-dimethyl-1H-1,2,3-triazol-4-yl)-2-fluoro-N-(8-methylisoquinolin-1-yl)-N-(piperidin-3-yl)benzamide]
52	NC(=O)c1ccc(-c2cc3c(N(C(=O)c4ccc(-n5nnc6cccnc65)cc4F)[C@@H]4CCCNC4)nccc3s2)cc1 [Example 448, N-[2-(4-carbamoylphenyl)thieno[3,2-c]pyridin-4-yl]-2-fluoro-N-[(3R)-3-piperidyl]-4-(triazolo[4,5-b]pyridin-3-yl)benzamide]
240	CCc1nnc(-c2ccc(C(=O)N(c3nccc4cccc(C)c34)[C@@H]3CCCNC3)nc2)s1 [Example 673, 5-(5-ethyl-1,3,4-thiadiazol-2-yl)-N-(8-methyl-1-isoquinolyl)-N-[(3R)-3-piperidyl]pyridine-2-carboxamide]
48	COc1cc(C)c2c(N(C(=O)c3ccc(-c4nnc(C)s4)nc3)[C@@H]3CCCNC3)nccc2c1 [Example 901, N-(6-methoxy-8-methyl-1-isoquinolyl)-6-(5-methyl-1,3,4-thiadiazol-2-yl)-N-[(3R)-3-piperidyl]pyridine-3-carboxamide]
140	Cc1cccc2ccnc(N(C(=O)c3ccc(Nc4nccc(-c5ccc(O)cc5)n4)cc3F)[C@@H]3CCCNC3)c12 [Example 721, (R)-2-fluoro-4-((4-(4-hydroxyphenyl)pyrimidin-2-yl)amino)-N-(8-methylisoquinolin-1-yl)-N-(piperidin-3-yl)benzamide]
1200	CC(C)n1nccc1-c1ccc2c(N(C(=O)c3ccc(-n4nnc5cccnc54)cc3F)[C@@H]3CCCNC3)nccc2c1 [Example 439, (R)-4-(3H-[1,2,3]triazolo[4,5-b]pyridin-3-yl)-2-fluoro-N-(6-(1-isopropyl-1H-pyrazol-5-yl)isoquinolin-1-yl)-N-(piperidin-3-yl)benzamide]
540	CCc1csc2ccnc(N(C(=O)c3ccc(-c4nnc(C)s4)cc3F)[C@@H]3CCCNC3)c12 [Example 617, (R)—N-(3-ethylthieno[3,2-c]pyridin-4-yl)-2-fluoro-4-(5-methyl-1,3,4-thiadiazol-2-yl)-N-(piperidin-3-yl)benzamide]
97	Cc1cccc2ccnc(N(C(=O)c3ccc(-c4nnc(C5CC5)o4)cc3)[C@@H]3CCCNC3)c12 [Example 789, (R)-4-(5-cyclopropyl-1,3,4-oxadiazol-2-yl)-N-(8-methylisoquinolin-1-yl)-N-(piperidin-3-yl)benzamide]
34	Cc1cc(Cl)cc2ccnc(N(C(=O)c3ccc(-c4nnn(C)c4C)cc3F)[C@@H]3CCCNC3)c12 [Example 763, (R)—N-(6-chloro-8-methylisoquinolin-1-yl)-4-(1,5-dimethyl-1H-1,2,3-triazol-4-yl)-2-fluoro-N-(piperidin-3-yl)benzamide]
170	Cc1csc2ccnc(N(C(=O)c3ccc(-c4nnc(CCC#N)s4)nc3)[C@@H]3CCCNC3)c12 [Example 912, 6-[5-(2-cyanoethyl)-1,3,4-thiadiazol-2-yl]-N-(3-methylthieno[3,2-c]pyridin-4-yl)-N-[(3R)-3-piperidyl]pyridine-3-carboxamide]
720	Cc1noc(-c2ccc(C(=O)N(c3nccc4scc(C)c34)[C@@H]3CCCNC3)c(C)c2)n1 [Example 777, (R)-2-methyl-4-(3-methyl-1,2,4-oxadiazol-5-yl)-N-(3-methylthieno[3,2-c]pyridin-4-yl)-N-(piperidin-3-yl)benzamide]
45	Cc1cccc2ccnc(N(C(=O)c3ccc(Nc4nccc(N5CCCCC5)n4)cc3F)[C@@H]3CCCNC3)c12 [Example 578, (R)-2-fluoro-N-(8-methylisoquinolin-1-yl)-4-((4-(piperidin-1-yl)pyrimidin-2-yl)amino)-N-(piperidin-3-yl)benzamide]

IC50 [nM]	Structure (SMILES)
5300	Cn1cc(-c2ccc(C(=O)N(c3nccc4sc(-c5ccc6[nH]c(=O)[nH]c6c5)cc34)[C@@H]3CCCNC3)c(F)c2)nn1 [Example 545]
300	Cn1cc(-c2ccc(C(=O)N(c3nccc4cc(-c5cccc(CO)c5)ccc34)[C@@H]3CCCNC3)c(F)c2)nn1 [Example 490, (R)-2-fluoro-N-(6-(3-(hydroxymethyl)phenyl)isoquinolin-1-yl)-4-(1-methyl-1H-1,2,3-triazol-4-yl)-N-(piperidin-3-yl)benzamide]
170	CCc1nnc(-c2ccc(C(=O)N(c3nccc4scc(C)c34)[C@@H]3CCCNC3)c(F)c2)o1 [Example 649, (R)-4-(5-ethyl-1,3,4-oxadiazol-2-yl)-2-fluoro-N-(3-methylthieno[3,2-c]pyridin-4-yl)-N-(piperidin-3-yl)benzamide]
140	COCCc1nnc(-c2ccc(C(=O)N(c3nccc4scc(C)c34)[C@@H]3CCCNC3)c(F)c2)s1 [Example 634, (R)-2-fluoro-4-(5-(2-methoxyethyl)-1,3,4-thiadiazol-2-yl)-N-(3-methylthieno[3,2-c]pyridin-4-yl)-N-(piperidin-3-yl)benzamide]
25	COc1cc(-n2nnc3cccnc32)ccc1C(=O)N(c1nccc2cccc(C)c12)[C@@H]1CCCNC1 [Example 308, (R)-4-(3H-[1,2,3]triazolo[4,5-b]pyridin-3-yl)-2-methoxy-N-(8-methylisoquinolin-1-yl)-N-(piperidin-3-yl)benzamide]
200	Cc1cc(Cl)cc2ccnc(N(C(=O)c3ccc(Nc4ncccn4)cc3F)[C@@H]3CCCNC3)c12 [Example 793, N-(6-chloro-8-methyl-1-isoquinolyl)-2-fluoro-N-[(3R)-3-piperidyl]-4-(pyrimidin-2-ylamino)benzamide]
370	Cc1cccc2ccnc(N(C(=O)N3CCCC(c4ncc(-c5ccccc5)[nH]4)C3)[C@@H]3CCCNC3)c12 (stereo partly drawn) [Example 341, N-(8-methylisoquinolin-1-yl)-3-(5-phenyl-1H-imidazol-2-yl)-N—((R)-piperidin-3-yl)piperidine-1-carboxamide]
53	COCc1nnc(-c2ccc(C(=O)N(c3nccc4cc(Cl)cc(C)c34)[C@@H]3CCCNC3)cn2)s1 [Example 895, N-(6-chloro-8-methyl-1-isoquinolyl)-6-[5-(methoxymethyl)-1,3,4-thiadiazol-2-yl]-N-[(3R)-3-piperidyl]pyridine-3-carboxamide]
250	Cn1cc(-c2ccc(C(=O)N(c3nccc4sc(-c5ccsc5)cc34)[C@@H]3CCCNC3)c(F)c2)nn1 [Example 511, 2-fluoro-4-(1-methyltriazol-4-yl)-N-[(3R)-3-piperidyl]-N-[2-(3-thienyl)thieno[3,2-c]pyridin-4-yl]benzamide]
81	Cc1cccc2ccnc(N(C(=O)c3ccc(Nc4nccc(NCCO)n4)cc3F)[C@@H]3CCCNC3)c12 [Example 734, (R)-2-fluoro-4-((4-((2-hydroxyethyl)amino)pyrimidin-2-yl)amino)-N-(8-methylisoquinolin-1-yl)-N-(piperidin-3-yl)benzamide]
67	Cc1cccc2ccnc(N(C(=O)c3ccc(-c4cnn(C)c4)c(-c4cnn(C)c4)c3)[C@@H]3CCCNC3)c12 [Example 326, (R)-3,4-bis(1-methyl-1H-pyrazol-4-yl)-N-(8-methylisoquinolin-1-yl)-N-(piperidin-3-yl) benzamide]
140	COC/C=C/c1ccnc(Nc2ccc(C(=O)N(c3nccc4cccc(C)c34)[C@@H]3CCCNC3)c(F)c2)n1 [Example 749, (R,E)-2-fluoro-4-((4-(3-methoxyprop-1-en-1-yl)pyrimidin-2-yl)amino)-N-(8-methylisoquinolin-1-yl)-N-(piperidin-3-yl)benzamide]
290	Cc1nnc(-c2ccc(C(=O)N(c3nccc4cc(F)cc(C)c34)[C@@H]3CCCNC3)nc2)s1 [Example 784, (R)—N-(6-fluoro-8-methylisoquinolin-1-yl)-5-(5-methyl-1,3,4-thiadiazol-2-yl)-N-(piperidin-3-yl)picolinamide]
81	Cc1cccc2ccnc(N(C(=O)c3ccc(Nc4nccc(-n5cccn5)n4)cc3F)[C@@H]3CCCNC3)c12 [Example 723, (R)-4-((4-(1H-pyrazol-1-yl)pyrimidin-2-yl)amino)-2-fluoro-N-(8-methylisoquinolin-1-yl)-N-(piperidin-3-yl)benzamide]
940	Cc1cccc2ccnc(N(C(=O)c3cccc(C#CCCC(=O)N4CCC(O)C4)c3)[C@@H]3CCCNC3)c12 (stereo partly drawn) [Example 518, 3-(5-(3-hydroxypyrrolidin-1-yl)-5-oxopent-1-yn-1-yl)-N-(8-methylisoquinolin-1-yl)-N—((R)-piperidin-3-yl)benzamide]
72	Cc1cccc2ccnc(N(C(=O)c3ccc(C#N)c(-c4cccc(-c5cn[nH]c5)c4)c3)[C@@H]3CCCNC3)c12 [Example 329, (R)-6-cyano-N-(8-methylisoquinolin-1-yl)-N-(piperidin-3-yl)-3′-(1H-pyrazol-4-yl)-[1,1′-biphenyl]-3-carboxamide]
